Biological target: T1, CYP2E1 (Rattus norvegicus, UniProt P05182, species not given)
Assay: in vitro
Settings: human, microsomes, pH 7.4, Ki

T1 sequence (P05182 2-493): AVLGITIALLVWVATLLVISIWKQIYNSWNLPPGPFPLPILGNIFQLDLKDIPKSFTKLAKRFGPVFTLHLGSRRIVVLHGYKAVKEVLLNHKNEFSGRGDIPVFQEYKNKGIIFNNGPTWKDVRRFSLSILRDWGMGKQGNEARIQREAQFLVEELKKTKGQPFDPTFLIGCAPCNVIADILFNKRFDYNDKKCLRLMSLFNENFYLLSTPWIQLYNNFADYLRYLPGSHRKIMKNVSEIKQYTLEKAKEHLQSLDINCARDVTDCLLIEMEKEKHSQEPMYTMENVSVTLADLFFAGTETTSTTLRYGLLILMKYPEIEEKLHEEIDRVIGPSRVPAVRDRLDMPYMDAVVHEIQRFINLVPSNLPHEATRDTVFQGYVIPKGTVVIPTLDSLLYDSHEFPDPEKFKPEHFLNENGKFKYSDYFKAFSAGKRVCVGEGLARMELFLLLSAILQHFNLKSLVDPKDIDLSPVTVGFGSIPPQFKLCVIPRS

Ki at 10 min [µM] | SMILES
931 | Oc1ccc2ccccc2n1 [2-hydroxyquinoline]
592 | Oc1ccnc2ccccc12 [4-hydroxyquinoline]
218 | Oc1ccc2ncccc2c1 [6-hydroxyquinoline]

Same assay, conditions: human, microsomes, pH 7.4, pKi

Ki at 10 min [µM] | SMILES
1000 | Oc1ccc2ccccc2n1 [2-hydroxyquinoline]
631 | Oc1ccnc2ccccc12 [4-hydroxyquinoline]
200 | Oc1ccc2ncccc2c1 [6-hydroxyquinoline]

Same assay, conditions: human, microsomes, pH 7.4, pKi±stdev

Ki at 10 min [µM] | SMILES
1000 | Oc1ccc2ccccc2n1 [2-hydroxyquinoline]

Biological target: Rabbit CYP2E1 (Oryctolagus cuniculus, UniProt P08682)
Sequence (P08682 whole entry): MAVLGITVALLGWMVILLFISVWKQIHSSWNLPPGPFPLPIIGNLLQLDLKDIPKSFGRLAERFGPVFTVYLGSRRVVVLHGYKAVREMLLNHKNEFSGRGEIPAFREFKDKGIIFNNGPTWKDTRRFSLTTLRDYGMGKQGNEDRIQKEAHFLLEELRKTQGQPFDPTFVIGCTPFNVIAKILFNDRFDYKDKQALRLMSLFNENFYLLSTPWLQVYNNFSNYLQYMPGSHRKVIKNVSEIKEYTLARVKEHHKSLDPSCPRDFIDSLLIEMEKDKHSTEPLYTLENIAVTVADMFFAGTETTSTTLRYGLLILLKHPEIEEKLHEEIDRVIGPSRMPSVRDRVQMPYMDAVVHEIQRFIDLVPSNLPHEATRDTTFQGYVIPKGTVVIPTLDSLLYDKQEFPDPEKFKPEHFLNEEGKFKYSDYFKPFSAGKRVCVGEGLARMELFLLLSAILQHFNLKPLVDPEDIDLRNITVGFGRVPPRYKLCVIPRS
Assay: Inhibition of p-nitrophenol hydroxylation by purified rabbit CYP2E1
Format: biochemical
Settings: Ki, substituted pyrazoles; purified rabbit CYP2E1, p-nitrophenol as substrate

Ki [µM] | SMILES
0.06 | CCCCCc1cn[nH]c1 [4-pentylpyrazole]
21 | O=[N+]([O-])c1cn[nH]c1 [4-nitropyrazole]
1 | Ic1cn[nH]c1 [4-iodopyrazole]
3 | Cc1n[nH]cc1Br [4-bromo-3-methylpyrazole]
5750 | CC(=O)Nc1cn[nH]c1 [4-acetylaminopyrazole]
5.4 | Cc1cc[nH]n1 [3-methylpyrazole]
0.16 | CCCc1cn[nH]c1 [4-propylpyrazole]

Same assay, conditions: Log (1/Ki); substituted pyrazoles, purified rabbit CYP2E1, p-nitrophenol

pKi | SMILES
6.1 | CCCOc1cn[nH]c1 [4-O-propylpyrazole]

Same assay, conditions: pKi±stdev, Table 3 test set; substituted pyrazole, purified rabbit CYP2E1, p-nitrophenol

Ki [µM] | SMILES
0.158 | CCCc1cn[nH]c1 [4-propylpyrazole]

Same assay, conditions: substituted pyrazoles; purified rabbit CYP2E1, p-nitrophenol as substrate

Ki [µM] | SMILES
0.79 | CCCOc1cn[nH]c1 [4-O-propylpyrazole]

Biological target: T1, CYP2E1
Assay: Inhibition of chlorzoxazone 6-hydroxylation in CYP2E1 liver microsomes
Settings: human, microsomes, pH 7.4, pKi, Log (1/Ki), chlorzoxazone metabolism

SMILES | Ki at 10 min [µM]
c1ccc2ncccc2c1 [quinoline] | 63.1
COC(=O)c1cccnc1 [methyl nicotinate] | 20
Cc1cccc(C)n1 [2,6-lutidine] | 398
Oc1cccc2cccnc12 [8-hydroxyquinoline] | 79.4
Cc1cnc2ccccc2c1 [3-methylquinoline] | 100
OCc1c[nH]cn1 [4-hydroxymethylimidazole] | 501
Cn1ccnc1 [1-methylimidazole] | 6.31
c1ccncc1 [pyridine] | 12.6
O=C(n1ccnc1)C(F)(F)F [1-(trifluoroacetyl)-imidazole] | 251
O=[N+]([O-])c1c[nH]cn1 [4-nitroimidazole] | 12.6

Same assay, conditions: human, microsomes, pH 7.4, pKi±stdev, Table 3 test set, chlorzoxazone metabolism

SMILES | Ki at 10 min [µM]
c1ccc2ncccc2c1 [quinoline] | 63.1
O=[N+]([O-])c1c[nH]cn1 [4-nitroimidazole] | 12.6

Biological target: CYP2E1 (Rattus norvegicus, UniProt P05182)
Sequence (P05182 2-493): as the sequence (P05182 2-493) above
Assay: as above
Settings: Log (1/Ki), chlorzoxazone metabolism

SMILES | pKi
CCCCn1ccnc1 [N-(n-butyl)imidazole] | 6.2
COC(=O)c1ccncc1 [methyl isonicotinate] | 5.6
c1cn[nH]c1 [pyrazole] | 4.4

Same assay, conditions: Table 3 test set, chlorzoxazone metabolism

SMILES | pKi±stdev
COC(=O)c1ccncc1 [methyl isonicotinate] | 5.6±0.1

Reference: article PMC3129366 (Chemico-biological interactions, 2011)
